Measured values as given in BindingDB's records for PubMed 39442337 (China Pharmaceutical University).

Assay: Antagonist activity at PAR4 in human platelet rich plasma assessed as inhibition of gamma-PAR4 agonist peptide (AYPGKF-NH2)-induced platelet aggregation preincubated for 5 mins followed by peptide addition and measured after 5 mins by aggregometer

Going from `COCc1ncc2c(-c3nc4cc(F)c(OCCOC(=O)Nc5cc(F)cc(C#N)c5)cc4s3)cc(C)cc2n1` to `COc1ncc2c(-c3nc4cc(F)c5c(c4s3)C[C@H](COC(=O)Nc3cc(F)cc(C#N)c3)O5)cc(C)cc2n1`, the IC50 falls from 0.0095 µM to 0.0035 µM (2.7-fold).

For `COc1ncc2c(-c3nc4cc(F)c5c(c4s3)C[C@H](COC(=O)Nc3cccc(C#N)c3)O5)cc(C)cc2n1`, the IC50 was 0.0064 µM.

Assay: Antagonist activity at PAR4 in mouse washed platelets assessed as inhibition of gamma-PAR4 agonist peptide (AYPGKF-NH2)-induced platelet aggregation preincubated for 5 mins followed by peptide addition and measured after 5 mins by aggregometer

Compared with `CNc1ncc2cc(C)cc(-c3nc4c(Cl)cc(OC)cc4s3)c2n1`, `COc1cc(Cl)c2nc(-c3cc(C)cc4cnc(C)nc34)sc2c1` is 1.5-fold lower in IC50: 0.098 µM for the first, 0.064 µM for the second.

First: COc1cc(Cl)c2nc(-c3cc(C)cc4cnc(OC(C)C)nc34)sc2c1
Second: COc1cc(Cl)c2nc(-c3cc(C)cc4cnc(OCC(C)C)nc34)sc2c1
The IC50 of the first is lower: 0.773 µM for the first, over 1 µM for the second.

Compared with `CCOc1ncc2c(-c3nc4cc(F)c(OC)cc4s3)cc(C)cc2n1`, `COCOc1ncc2c(-c3nc4cc(F)c(OC)cc4s3)cc(C)cc2n1` is 15-fold lower in IC50: 0.369 µM for the first, 0.025 µM for the second. The second is the more potent here.

Going from `COc1ccc2nc(-c3cc(C)cc4nc(SC)ncc34)sc2c1` to `COc1ccc2nc(-c3cc(C)cc4nc(OC)ncc34)sc2c1`, the IC50 falls from 0.223 µM to 0.103 µM (2.2-fold).

Going from `COc1ncc2cc(C)cc(-c3nc4ccccc4s3)c2n1` to `COc1ncc2c(-c3nc4ccccc4s3)cc(C)cc2n1`, the IC50 falls from 0.563 µM to 0.368 µM (1.5-fold).

Going from `COCc1ncc2c(-c3nc4cc(F)c(OCCOC(=O)Nc5cc(F)cc(C#N)c5)cc4s3)cc(C)cc2n1` to `COCc1ncc2c(-c3nc4cc(F)c(OCCOC(=O)Nc5cccc(C#N)c5)cc4s3)cc(C)cc2n1`, the IC50 rises from 0.019 µM to 0.069 µM (3.6-fold).

Going from `COc1ncc2c(-c3nc4cc(F)c5c(c4s3)C[C@H](COC(=O)N3CCOCC3)O5)cc(C)cc2n1` to `COc1ncc2c(-c3nc4cc(F)c5c(c4s3)C[C@@H](COC(=O)N3CCOCC3)O5)cc(C)cc2n1`, the IC50 rises from 0.168 µM to 0.304 µM (1.8-fold). The first is the more potent here.

First: COc1cc(F)c2nc(-c3cc(C)cc4nc(OC)ncc34)sc2c1
Second: CCOc1ncc2c(-c3nc4c(F)cc(OC)cc4s3)cc(C)cc2n1
The IC50 of the first is 3.4-fold lower: 0.08 µM for the first, 0.274 µM for the second. The first is the more potent here.

First: COc1ncc2cc(C)cc(-c3nc4c(Cl)cc(Cl)cc4s3)c2n1
Second: COc1cc(Cl)c2nc(-c3cc(C)cc4cnc(OC)nc34)sc2c1
The IC50 of the first is 11-fold higher: 0.356 µM for the first, 0.032 µM for the second.

First: COc1ncc2c(-c3nc4cc(F)c5c(c4s3)C[C@H](COC(=O)Nc3ccc(OC)c(F)c3)O5)cc(C)cc2n1
Second: COc1ccc(NC(=O)OC[C@H]2Cc3c(c(F)cc4nc(-c5cc(C)cc6nc(OC)ncc56)sc34)O2)cn1
The IC50 of the first is 2.1-fold lower: 0.169 µM for the first, 0.356 µM for the second. The first is the more potent here.

First: COCOc1ncc2c(-c3nc4c(Cl)cc(OC)cc4s3)cc(C)cc2n1
Second: CCOc1ncc2c(-c3nc4c(Cl)cc(OC)cc4s3)cc(C)cc2n1
The IC50 of the first is 5-fold lower: 0.045 µM for the first, 0.223 µM for the second.

Going from `COc1ccc2nc(-c3cc(C)cc4nc(OC(C)C)ncc34)sc2c1` to `COCOc1ncc2c(-c3nc4ccc(OC)cc4s3)cc(C)cc2n1`, the IC50 falls from 0.362 µM to 0.109 µM (3.3-fold).

Going from `COc1cc(Cl)c2nc(-c3cc(C)cc4nc(OC)ncc34)sc2c1` to `COc1cc(C)c2nc(-c3cc(C)cc4nc(OC)ncc34)sc2c1`, the IC50 rises from 0.046 µM to 0.163 µM (3.5-fold). The first is the more potent here.

First: COCCCOc1ncc2cc(C)cc(-c3nc4c(Cl)cc(OC)cc4s3)c2n1
Second: COCCOc1ncc2cc(C)cc(-c3nc4c(Cl)cc(OC)cc4s3)c2n1
The IC50 of the first is lower: 0.963 µM for the first, over 1 µM for the second. The first is the more potent here.

`COc1ncc2c(-c3nc4cc(F)c(OCCO)cc4s3)cc(C)cc2n1` and `COc1ncc2c(-c3nc4cc(F)c(OC)cc4s3)cc(C)cc2n1` are within 1.5-fold of each other in IC50: 0.027 µM for the first, 0.021 µM for the second.

Compared with `COc1cc(OC)c2nc(-c3cc(C)cc4nc(SC)ncc34)sc2c1`, `COc1cc(Cl)c2nc(-c3cc(C)cc4nc(SC)ncc34)sc2c1` is lower in IC50: over 1 µM for the first, 0.136 µM for the second. The second is the more potent here.

`COc1ncc2c(-c3nc4cc(F)c5c(c4s3)C[C@H](COC(=O)Nc3ccc(C)cc3)O5)cc(C)cc2n1` and `COc1ccc(NC(=O)OC[C@H]2Cc3c(c(F)cc4nc(-c5cc(C)cc6nc(OC)ncc56)sc34)O2)cc1` are within 1.5-fold of each other in IC50: 0.073 µM for the first, 0.096 µM for the second.

`COc1cc(Cl)c2nc(-c3cc(C)cc4cncnc34)sc2c1` and `COc1cc(Cl)c2nc(-c3cc(C)cc4cnc(SC)nc34)sc2c1` are within 1.5-fold of each other in IC50: 0.072 µM for the first, 0.089 µM for the second.

First: COc1cc(Cl)c2nc(-c3cc(C)cc4cnc(N5CCOCC5)nc34)sc2c1
Second: COc1cc(Cl)c2nc(-c3cc(C)cc4cnc(N5CCCCC5)nc34)sc2c1
The IC50 of the first is 1.5-fold lower: 0.22 µM for the first, 0.335 µM for the second.

First: COc1ccc2nc(-c3cc(C)cc4cnc(OC)nc34)sc2c1
Second: COc1ncc2cc(C)cc(-c3nc4cc(F)c(OC)cc4s3)c2n1
The IC50 of the first is 3-fold higher: 0.089 µM for the first, 0.03 µM for the second.

Compared with `COc1cc2sc(-c3cc(C)cc4nc(SC)ncc34)nc2cc1F`, `COCc1ncc2c(-c3nc4cc(F)c(OCCOC(=O)OC)cc4s3)cc(C)cc2n1` is 6.7-fold higher in IC50: 0.096 µM for the first, 0.643 µM for the second.

Compared with `CCOc1ncc2cc(C)cc(-c3nc4c(Cl)cc(OC)cc4s3)c2n1`, `COc1cc(Cl)c2nc(-c3cc(C)cc4cnc(OC(F)F)nc34)sc2c1` is 6.5-fold lower in IC50: 0.567 µM for the first, 0.087 µM for the second.

Going from `COc1ncc2c(-c3nc4cc(F)c5c(c4s3)C[C@H](COC(=O)Nc3ccc(C)cc3F)O5)cc(C)cc2n1` to `COc1ccc(NC(=O)OC[C@H]2Cc3c(c(F)cc4nc(-c5cc(C)cc6nc(OC)ncc56)sc34)O2)c(C)c1`, the IC50 rises from 0.051 µM to 0.187 µM (3.7-fold).

Compared with `COc1ncc2c(-c3nc4cc(F)c5c(c4s3)C[C@H](COC(=O)Nc3cc(F)cc(C#N)c3)O5)cc(C)cc2n1`, `COc1ncc2c(-c3nc4cc(F)c5c(c4s3)C[C@@H](COC(=O)Nc3cc(F)cc(C#N)c3)O5)cc(C)cc2n1` is 13-fold higher in IC50: 0.0086 µM for the first, 0.109 µM for the second.

Going from `COc1cc(OC)c2nc(-c3cc(C)cc4nc(OC)ncc34)sc2c1` to `COCOc1ncc2c(-c3nc4c(F)cc(OC)cc4s3)cc(C)cc2n1`, the IC50 falls from 0.223 µM to 0.089 µM (2.5-fold).

Compared with `COc1ncc2c(-c3nc4cc(F)c5c(c4s3)C[C@@H](COC(=O)Nc3ccc(C(=O)N4CCOCC4)cc3)O5)cc(C)cc2n1`, `COc1ncc2c(-c3nc4cc(F)c5c(c4s3)C[C@H](COC(=O)Nc3ccc(C(=O)N4CCOCC4)cc3)O5)cc(C)cc2n1` is 2.5-fold higher in IC50: 0.165 µM for the first, 0.417 µM for the second.

First: COc1cc(F)c2nc(-c3cc(C)cc4cnc(OC)nc34)sc2c1
Second: COc1cc(Cl)c2nc(-c3cc(C)cc4cnc(N(C)C)nc34)sc2c1
The IC50 of the first is 2.6-fold lower: 0.041 µM for the first, 0.105 µM for the second.

First: COCc1ncc2c(-c3nc4cc(F)c(OCCOC(=O)N5CCOCC5)cc4s3)cc(C)cc2n1
Second: COCc1ncc2c(-c3nc4cc(F)c(OCCOC(=O)Nc5ccc(C(=O)N6CCOCC6)cc5)cc4s3)cc(C)cc2n1
The IC50 of the first is 8.5-fold higher: 0.756 µM for the first, 0.089 µM for the second.

Going from `COc1cc(Cl)c2nc(-c3cc(C)cc4nc(OC(C)C)ncc34)sc2c1` to `CNc1ncc2c(-c3nc4c(Cl)cc(OC)cc4s3)cc(C)cc2n1`, the IC50 falls from 0.456 µM to 0.223 µM (2-fold). The second is the more potent here.

Compared with `COc1cc(Cl)c2nc(-c3cc(C)cc4cnc(OC5CCCC5)nc34)sc2c1`, `COc1cc(Cl)c2nc(-c3cc(C)cc4cnc(N5CC6(COC6)C5)nc34)sc2c1` is higher in IC50: 0.986 µM for the first, over 1 µM for the second. The first is the more potent here.

Compared with `COc1ncc2c(-c3nc4cc(F)c5c(c4s3)C[C@H](COC(=O)Nc3cnc(C)nc3)O5)cc(C)cc2n1`, `COc1ncc2c(-c3nc4cc(F)c5c(c4s3)C[C@H](COC(=O)Nc3cccc(C#N)c3)O5)cc(C)cc2n1` is 46-fold lower in IC50: 0.689 µM for the first, 0.015 µM for the second.

Compared with `COc1ncc2cc(C)cc(-c3nc4c(C)cc5c(c4s3)OCCO5)c2n1`, `COc1cc(Cl)c2nc(-c3cc(C)cc4cnc(N5CCC6(CC5)OCCO6)nc34)sc2c1` is higher in IC50: 0.117 µM for the first, over 1 µM for the second.

For `COC(=O)OC[C@H]1Cc2c(c(F)cc3nc(-c4cc(C)cc5nc(OC)ncc45)sc23)O1`, the IC50 was 0.535 µM.
